Reference: patent publication US7671054B1, “Reverse-turn mimetics and method relating thereto” (Choongwae Pharma Corporation, priority 2001, dated 2010)
Like-named read-outs stand apart in the source and are kept apart here.

How the values were obtained:
HCT116 cells = assay: Growth inhibition assay (MTS); assay type: cell-based; details: Homo sapiens, Table 5, HCT116 cells, 48 hours treatment, MTS, read-out: Growth Inhibition (GI50, uM) HCT116
Procedure, shortened: (§1)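 Cells seeded at 10^4 per well, grown 24 h at 37° C, then exposed to compound at various concentrations for 48 hours. MTS added for 2 h; absorbance at 490 nm gave viability, with cytotoxicity calculated per concentration against pre-treatment reading.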

SW480 cells = assay: Growth inhibition assay (MTS); assay type: cell-based; details: Homo sapiens, Table 5, SW480 cells, 48 hours treatment, MTS, read-out: Growth Inhibition (GI50, uM) SW480
Procedure, shortened: as §1

`C[C@@H](c1ccc(Cl)c2cccnc12)N1CC2N(C(=O)CN(C)N2C(=O)NCc2ccccc2)[C@@H](Cc2ccc(O)cc2)C1=O` (stereo partly drawn) [Compound 166] showed a GI50 (HCT116 cells; HCT-116, 48 h) of 25.2 ± 3.2 µM and a GI50 (SW480 cells; SW480, 48 h) of 27.9 ± 4.7 µM.

In the case of `C=CCN1CC(=O)N2[C@@H](Cc3ccc(OP(=O)(O)O)cc3)C(=O)N(Cc3cccc4scnc34)C[C@@H]2N1C(=O)NCc1ccccc1` [Compound 167], the GI50 (HCT116 cells; HCT-116) is reported as 0.2 ± 0.02 µM and the GI50 (SW480 cells) is reported as 0.3 ± 0.02 µM.

`C[C@H](c1ccc(Cl)c2cccnc12)N1CC2N(C(=O)CN(C)N2C(=O)NCc2ccccc2)[C@@H](Cc2ccc(O)cc2)C1=O` (stereo partly drawn) [Compound 168] gave a GI50 (HCT116 cells; HCT-116, 48 h) of 6.5 ± 0.3 µM and a GI50 (SW480 cells; SW480, 48 h) of 6.2 ± 0.8 µM.

Compound `C=CCN1CC(=O)N2[C@@H](Cc3ccc(O)cc3)C(=O)N(Cc3cccc4cccnc34)C[C@@H]2N1C(=O)NCc1ccc(Cl)c(Cl)c1` [Compound 169] has a GI50 (HCT116 cells; HCT-116, 48 h) of 1 ± 0.2 µM and a GI50 (SW480 cells; SW480, 48 h) of 0.8 ± 0.1 µM.

For `CN1CC(=O)N2[C@@H](Cc3ccc(O)cc3)C(=O)N(Cc3ccc(F)cc3F)C[C@@H]2N1C(=O)NCc1ccc(F)cc1` [Compound 170], the GI50 (HCT116 cells; HCT-116, 48 h) was 8.6 ± 0.8 µM and the GI50 (SW480 cells; SW480, 48 h) was 8.9 ± 0.8 µM.

`C=CCN1CC(=O)N2[C@@H](Cc3ccc(O)cc3)C(=O)N(Cc3cccc4c3OCO4)C[C@@H]2N1C(=O)NCc1ccccc1` [Compound 172] showed a GI50 (HCT116 cells; HCT-116, 48 h) of 0.9 ± 0.1 µM and a GI50 (SW480 cells; SW480, 48 h) of 0.8 ± 0.1 µM.

With `C=CCN1CC(=O)N2[C@@H](Cc3ccc(O)cc3)C(=O)N(Cc3cccc4c3OCCO4)C[C@@H]2N1C(=O)NCc1ccccc1` [Compound 173] the GI50 (HCT116 cells; HCT-116) was 0.8 ± 0.1 µM and the GI50 (SW480 cells) was 0.6 ± 0.1 µM.

Work on `C=CCN1CC(=O)N2[C@@H](Cc3ccc(O)cc3)C(=O)N(Cc3cccc4c3OCCO4)C[C@@H]2N1C(=O)NCc1ccc(Cl)c(Cl)c1` [Compound 174] yielded a GI50 (HCT116 cells; HCT-116, 48 h) of 1.8 ± 0.1 µM and a GI50 (SW480 cells; SW480, 48 h) of 1.9 ± 0.2 µM.

Compound `C=CCN1CC(=O)N2[C@@H](Cc3ccc(O)cc3)C(=O)N(Cc3cccc4c3OCC4)C[C@@H]2N1C(=O)NCc1ccccc1` [Compound 175] has a GI50 (HCT116 cells; HCT-116, 48 h) of 2.5 ± 0.1 µM and a GI50 (SW480 cells; SW480, 48 h) of 3 ± 0.4 µM.

In the case of `C=CCN1CC(=O)N2[C@@H](Cc3ccc(O)cc3)C(=O)N(Cc3cccc(OC(F)(F)F)c3)C[C@@H]2N1C(=O)NCc1ccccc1` [Compound 176], the GI50 (HCT116 cells; HCT-116, 48 h) is reported as 1.7 ± 0.1 µM and the GI50 (SW480 cells; SW480, 48 h) is reported as 1.7 ± 0.2 µM.

`C=CCN1CC(=O)N2[C@@H](Cc3ccc(O)cc3)C(=O)N(Cc3ccccc3)C[C@@H]2N1C(=O)NCc1ccc(Cl)c(Cl)c1` [Compound 177] gave a GI50 (HCT116 cells; HCT-116, 48 h) of 1.6 ± 0.1 µM and a GI50 (SW480 cells; SW480, 48 h) of 1.8 ± 0.1 µM.

`C=CCN1CC(=O)N2[C@@H](Cc3ccc(O)cc3)C(=O)N(Cc3ccc(OC)cc3)C[C@@H]2N1C(=O)NCc1ccccc1` [Compound 178] was tested, and the GI50 (HCT116 cells; HCT-116, 48 h) was 1.5 ± 4.4 µM and the GI50 (SW480 cells; SW480, 48 h) was 1.6 ± 0.2 µM.

`C=CCN1CC(=O)N2[C@@H](Cc3ccc(OP(=O)(O)O)cc3)C(=O)N(Cc3ccc(OC)cc3)C[C@@H]2N1C(=O)NCc1ccccc1` [Compound 179] was tested, and the GI50 (HCT116 cells; HCT-116) was 1.6 ± 0.1 µM and the GI50 (SW480 cells) was 1.5 ± 0.1 µM.

`C=CCN1CC(=O)N2[C@@H](Cc3ccc(O)cc3)C(=O)N(Cc3cccc4scnc34)C[C@@H]2N1C(=O)NCc1ccc(Cl)c(Cl)c1` [Compound 180] gave a GI50 (HCT116 cells; HCT-116, 48 h) of 1.1 ± 0.1 µM and a GI50 (SW480 cells; SW480, 48 h) of 1 ± 0.1 µM.

`C=CCN1CC(=O)N2[C@@H](Cc3ccc(O)cc3)C(=O)N(Cc3ccc(OC(F)(F)F)cc3)C[C@@H]2N1C(=O)NCc1ccccc1` [Compound 181] showed a GI50 (HCT116 cells; HCT-116, 48 h) of 2.3 ± 0.1 µM and a GI50 (SW480 cells; SW480, 48 h) of 2.3 ± 0.1 µM.

Work on `C=CCN1CC(=O)N2[C@@H](Cc3ccc(OP(=O)(O)O)cc3)C(=O)N(Cc3ccc4c(c3)OCCO4)C[C@@H]2N1C(=O)NCc1ccccc1` [Compound 182] yielded a GI50 (HCT116 cells; HCT-116) of 0.8 ± 0.1 µM and a GI50 (SW480 cells) of 1 ± 0.1 µM.

With `C=CCN1CC(=O)N2[C@@H](Cc3ccc(O)cc3)C(=O)N(Cc3ccc(OC)cc3OC)C[C@@H]2N1C(=O)NCc1ccccc1` [Compound 183] the GI50 (HCT116 cells; HCT-116, 48 h) was 1.5 ± 0.1 µM and the GI50 (SW480 cells; SW480, 48 h) was 1.6 ± 0.3 µM.

Compound `C=CCN1CC(=O)N2[C@@H](Cc3ccc(O)cc3)C(=O)N(Cc3cccc(OC)c3OC)C[C@@H]2N1C(=O)NCc1ccccc1` [Compound 184] has a GI50 (HCT116 cells; HCT-116, 48 h) of 0.7 ± 0.1 µM and a GI50 (SW480 cells; SW480, 48 h) of 0.7 ± 0.4 µM.

With `C=CCN1CC(=O)N2[C@@H](Cc3ccc(O)cc3)C(=O)N(Cc3ccc(OC)cc3)C[C@@H]2N1C(=O)NCc1ccc(Cl)c(Cl)c1` [Compound 185] the GI50 (HCT116 cells; HCT-116, 48 h) was 4.5 ± 0.2 µM and the GI50 (SW480 cells; SW480, 48 h) was 4.9 ± 0.4 µM.

Compound `C=CCN1CC(=O)N2[C@@H](Cc3ccc(O)c(F)c3)C(=O)N(Cc3cccc4scnc34)C[C@@H]2N1C(=O)NCc1ccccc1` [Compound 186] has a GI50 (HCT116 cells; HCT-116, 48 h) of 2 ± 0.2 µM and a GI50 (SW480 cells; SW480, 48 h) of 1.7 ± 0.1 µM.

`C=CCN1CC(=O)N2[C@@H](Cc3ccc(O)cc3)C(=O)N(Cc3cccc4sc(Cl)nc34)C[C@@H]2N1C(=O)NCc1ccccc1` [Compound 187] showed a GI50 (HCT116 cells; HCT-116, 48 h) of 1 ± 0.1 µM and a GI50 (SW480 cells; SW480, 48 h) of 1 ± 0.1 µM.

`C=CCN1CC(=O)N2[C@@H](Cc3ccc(O)cc3)C(=O)N(Cc3cccc4sc(N5CCCCC5)nc34)C[C@@H]2N1C(=O)NCc1ccccc1` [Compound 188] gave a GI50 (HCT116 cells; HCT-116, 48 h) of 1.8 ± 0.2 µM and a GI50 (SW480 cells; SW480, 48 h) of 1.6 ± 0.2 µM.

`C=CCN1CC(=O)N2[C@@H](Cc3ccc(O)cc3)C(=O)N(Cc3cccc4sc(N5CCOCC5)nc34)C[C@@H]2N1C(=O)NCc1ccccc1` [Compound 189] gave a GI50 (HCT116 cells; HCT-116, 48 h) of 1.2 ± 0.1 µM and a GI50 (SW480 cells; SW480, 48 h) of 1 ± 0.1 µM.

`C=CCN1CC(=O)N2[C@@H](Cc3ccc(O)cc3)C(=O)N(Cc3cccc4sc(-c5ccc(O)cc5)nc34)C[C@@H]2N1C(=O)NCc1ccccc1` [Compound 192] was tested, and the GI50 (HCT116 cells; HCT-116, 48 h) was 1.3 ± 0.1 µM and the GI50 (SW480 cells; SW480, 48 h) was 1.1 ± 0.1 µM.
